{"source": "patent US20230381312A1", "about": "“REDIRECTING GLUCOSE METABOLISM TO LIMIT STRESS AND IMPROVE ADOPTIVE CELL THERAPY” (University of Pittsburgh - Of the Commonwealth System of …, priority 2020, published 2023)", "key": {"[1]": {"tested_on": "tumor-infiltrating T cells", "assay": "Signaling analysis of patient tumor-infiltrating T cells expanded with DCA (PD-1, Tim-3, IFN-gamma, TNF-alpha)", "format": "cell-based, human", "conditions": "patient TIL expanded with DCA, FIG. 7C", "description": "(§1) This method included obtaining a sample of tumor from a patient suffering from metastatic melanoma, making a single cell suspension, and expanding the T cells in a cell culture medium with IL-2 present in a concentration of 6000 IU/mL+/−DCA in addition to anti-CD3/anti-CD28 antibodies for a period of 10 days.\nSignaling analysis were performed as described above."}, "T cells [2]": {"tested_on": "T cells", "assay": "Cytokine synthesis on restimulation after switch to low or high nutrient conditions", "format": "cell-based", "description": "FIG. 15A is a schematic of the experimental protocol for FIGS. 15B and 15C."}, "[3]": {"tested_on": "tumor-infiltrating T cells", "assay": "Metabolic flux rate experiment (OCR) in tumor-infiltrating T cells of melanoma patients expanded in vitro with DCA", "format": "cell-based, human", "conditions": "patient TIL expanded 10 days, FIG. 7B", "description": "Patient samples and PBMC samples were obtained from melanoma patients who were enrolled on institutional review board approved protocols. Cells from 5 different patients were used. PBMC were cryopreserved in 90% FBS plus 10% DMSO (Sigma, St. Louis. MO).\nas §1\nMetabolic flux rate experiments measuring OCR were also performed as described above."}, "[4]": {"tested_on": "human anti-CD19 CAR-T cells", "assay": "Metabolic flux rate experiments in human anti-CD19 CAR-T cells generated with DCA", "format": "cell-based", "conditions": "5 mM DCA relative to hCD19 CAR, FIG. 8B", "description": "On the first day (“day 0”), 1) fresh or frozen peripheral blood mononuclear (PBMCs) are seeded at 10×10^6 cells/10 mL in a T25 culture flask in T Cell Growth Media (TCGM), and 2) T cell stimulation cocktail is added to a final concentration of 50 ng/mL anti-CD3, 50 ng/mL anti-CD28, and 250 IU/mL IL-2. […] On day 3, 5) lentiviral supernatant is removed, and 6) cells are fed with new media to a concentration of 3×10^5 cells/mL and 5 mM DCA. On day 4, 7) a transfer of 5×10^6 cells/condition is made to G-Rex® 6 multi-well plates, filling TCGM+5 mM DCA to a volume of 100 mL/well. […] On day 10, 9) cells are frozen down to a concentration of 100×10^6 cells/mL. Standard T Cell Growth Media includes: 930 mL X-VIVO®-15 cell medium, 50 ml Human AB Serum, 10 ml 100× GlutaMAX® supplement, and 10 mL 1M HEPES.\nFMC63 (human CD19 targeted CAR) human T cells were generated in the presence or absence of DCA. These cells were used to treat mice bearing A549 lung cancer tumors that were engineered to express hCD19.\nControls were prepared and human anti-CD19 CAR-T cells were cultured as described above. Metabolic flux rate experiments measuring OCR were also performed as described above."}, "T cells [5]": {"tested_on": "T cells", "assay": "T cell survival and BCL2 expression after 10 days expansion in DCA (CellTrace Violet, flow cytometry)", "format": "cell-based", "description": "The impact of a PDHK1 inhibitor (DCA) on T cell survival was assessed by measuring expression of anti-apoptotic BLC2. […] The T cells were activated and expanded as described in Example 1, except the labeled PBMCs were cultured in media containing IL-2 for 48 hours, and the T cells were cultured in DCA or control conditions for 10 days. Experimental expansion conditions included culturing in 5 mM DCA or 10 mM DCA. Control conditions included 5 mM of glycolysis inhibitor 2-deoxyglucose (2DG), low glucose media, or PBS. The impact of DCA on T cell survival was assayed by evaluating CellTrace® Violet dilution with flow cytometry. Fresh X-VIVO®-15-based culture medium containing IL-2 and DCA or 2DG was added to the T cell cultures every two to three days for a total of ten days to permit outgrowth and expansion of the T cells.\nA pairwise T test was performed on all day ten cultures (each concentration of DCA was compared to 0 mM DCA: *p<0.05, **p<0.01)."}, "human T cells": {"tested_on": "human T cells", "assay": "Metabolic flux rate experiments (OCR, SRC) in human T cells expanded in DCA", "format": "cell-based", "description": "Metabolic flux rate experiments were performed to determine whether human T cells expanded in DCA show improved mitochondrial respiratory capacity. This example identically replicates the methods described in Example 3, except human T cells were used (derived from human healthy donor blood).\nMetabolic flux rate measurements were performed using the CellDoctor™ device and methods described above. The CellDoctor™ device was configured to measure oxygen consumption rate (OCR) and extracellular acidification rate (ECAR), corresponding to proton flux, of cells that are adherent to the bottom of 24 well microplates. As described above, flux rate experiments were performed in a human T cell line expanded in either 5 mM DCA or a control group without DCA. FIG. 6A illustrates the use of an activation step (CD3/CD28) for 48 hours and a culturing step (Ctrl/DCA) for 10 days as described in Example 2."}, "T cells [6]": {"tested_on": "T cells", "assay": "Mitochondrial mass by MitoTracker FM in T cells cultured in DCA", "format": "cell-based, mouse", "conditions": "after culture in 5 mM DCA, FIG. 4E"}, "EGFR BBz CAR-T cells": {"tested_on": "EGFR BBz CAR-T cells", "assay": "Metabolic flux rate experiments (OCR, ECAR) in EGFR BBz CAR-T cells expanded with DCA", "format": "cell-based", "conditions": "for OCR analysis (metabolic phenotype): FIG. 9A; for ECAR analysis (metabolic phenotype): FIG. 9B", "description": "Immunodeficient mice with a solid tumor (unmodified A549) were treated with adoptively transferred EGFR BBz CAR T cells that were expanded either in the presence or absence of DCA.\nFIGS. 9A-9C depict metabolic flux rate experiments and flow cytometry measurements, showing that DCA can metabolically enhance a solid-tumor targeted CAR.\nThe UTD control was prepared as described above. Metabolic flux rate experiments and T cell preparation were performed as described above."}, "T cells [7]": {"tested_on": "T cells", "assay": "Metabolic flux rate experiments (OCR, ECAR) in T cells expanded in DCA", "format": "cell-based, mouse", "description": "The methods provided herein can include measurement of plural extracellular solutes and adjacent living cells disposed, for example, in a well of a multiwell microplate.\nThis apparatus can include an array of submersible sensors that enable rapid coordinated sensor stabilization within multiple cell-containing wells. It also includes compound storage and delivery apparatus, a pneumatic multiplexer, a structure for adding fluids to subsets or all of the multiple wells simultaneously, and a sensor structure permitting non-destructive measurement of the effect of addition of exogenous fluid to the respective wells, in combination with the ability to make and repeat measurements rapidly. Furthermore, the apparatus is designed to exploit a cartridge structure which permits repeated use of the apparatus for disparate cellular assays without requiring intermediate cleaning, and while eliminating the possibility of cross contamination between tests.\nIn use, the first step in a measurement sequence with the Seahorse XF instrument is the exchange of cell media to a type containing nearly no bicarbonate or other pH buffer in order to maximize the pH change caused by cellular proton flux.\nNext, measurement probes fitted with an optical oxygen and pH sensor were placed in each well, and were raised and lowered to mix the cell media for approximately five minutes. Third, each probe was lowered into the cell media to stop at a precise point above the cells such that approximately 25 μL of media was sequestered in a way that impeded the diffusion of oxygen molecules and protons to the larger volume of media in the well. Fourth, a series of optical measurements of the two sensors on the probe bottom (in contact with the small volume of media above the cells) were made at intervals of 8 seconds and for a period of five minutes. Typically, the dissolved oxygen level decreased by approximately 10% and the pH decreased by approximately 0.1 units. A simple linear fit to the rate of change of oxygen and pH were used to determine the OCR and ECAR for each well. […]"}, "[8]": {"conditions": "5 mM DCA relative to UTD control"}, "[9]": {"conditions": "10 mM DCA relative to UTD control"}}}
{"molecule": "O=C(O)C(Cl)Cl", "note": "[DCA, dichloroacetic acid]", "values": [{"measurement": "cytokine production (IFN-gamma and TNF-alpha)", "setting": "[1]", "value": "increase in cytokine production"}, {"measurement": "ratio of PD-1 negative T cells to PD-1 positive T cells", "setting": "[1]", "value": "increasing ratio"}, {"measurement": "ratio of Tim-3 negative T cells to Tim-3 positive T cells", "setting": "[1]", "value": "increasing ratio"}, {"measurement": "cytokine synthesis when restimulated after expansion", "setting": "T cells [2]; cells cultured with DCA for 7 days, then low or high nutrient conditions for 14 hours, FIG. 15B-15C", "value": "more proficient at synthesizing cytokines"}, {"measurement": "resistance to stress in low nutrient conditions", "setting": "T cells [2]; low nutrient: 1 mM glucose+0 mM pyruvate, 14 hours", "value": "more resistant to stress"}, {"measurement": "OCR at serial time points (metabolic phenotype)", "setting": "[3]; 5 mM DCA relative to TIL control", "value": "superior metabolic phenotype"}, {"measurement": "OCR at serial time points (metabolic phenotype)", "setting": "[3]; 10 mM DCA relative to TIL control", "value": "superior metabolic phenotype"}, {"measurement": "OCR at serial time points (metabolic phenotype)", "setting": "[4]", "value": "superior metabolic and therapeutic phenotype"}, {"measurement": "T cell survival", "setting": "T cells [5]; T cells cultured in 5 mM or 10 mM DCA for 10 days vs 0 mM DCA", "value": "significantly increased"}, {"measurement": "expression of the anti-apoptotic factor BCL2", "setting": "T cells [5]; T cells cultured in DCA for 10 days, FIG. 3", "value": "enhanced expression"}, {"measurement": "Spare Respiratory Capacity (SRC, OCRmax-OCRbasal)", "setting": "human T cells; human T cells expanded in 5 mM DCA versus control, FIG. 6D", "value": "at least 60"}, {"measurement": "increase in OCR over baseline", "setting": "human T cells; human T cells expanded in 5 mM DCA, FIG. 6C", "value": "at least 20 pmol/min"}, {"measurement": "OCR over time", "setting": "human T cells; human T cells, CD3/CD28 48 hours then 5 mM DCA 10 days vs control, FIG. 6B", "value": "dramatic increase"}, {"measurement": "mitochondrial mass (MitoTracker FM)", "setting": "T cells [6]", "value": "increased"}, {"measurement": "OCR analysis (metabolic phenotype)", "setting": "EGFR BBz CAR-T cells; [8]", "value": "superior metabolic phenotype"}, {"measurement": "ECAR analysis (metabolic phenotype)", "setting": "EGFR BBz CAR-T cells; [8]", "value": "superior metabolic phenotype"}, {"measurement": "OCR analysis (metabolic phenotype)", "setting": "EGFR BBz CAR-T cells; [9]", "value": "superior metabolic phenotype"}, {"measurement": "ECAR analysis (metabolic phenotype)", "setting": "EGFR BBz CAR-T cells; [9]", "value": "superior metabolic phenotype"}, {"measurement": "OCR after sequential injection of FCCP and 2DG", "setting": "T cells [7]; T cells expanded in 5 mM DCA vs control cells, FIG. 4A", "value": "OCR increased"}, {"measurement": "increase in OCR over baseline", "setting": "T cells [7]; T cells expanded in 5 mM DCA, FIG. 4B", "value": "at least 30%"}, {"measurement": "increase in ECAR over baseline", "setting": "T cells [7]; T cells expanded in 5 mM DCA, FIG. 4C", "value": "at least 10 mpH/min"}]}
